ChEMBL document CHEMBL1201862, “PubChem BioAssay data set” (2004)
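Results reflect a 48-hour exposure of cells in 96-well plates to compound at five concentrations. GI50 is the concentration that inhibits growth by half.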 Calls of active or inactive are those of the source. No stated cut-off is given here; in the data, active = GI50 up to about 1.1 µM and inactive = higher.

How the values were obtained:
Test in all cases: NCI anticancer screen, dose series, 48 h
[1] = tested on: SN12C
[2] = tested on: OVCAR-3
[3] = tested on: UACC-62
[4] = tested on: SK-MEL-2
[5] = tested on: Hs-578T
[6] = tested on: TK-10
[7] = tested on: NCI-H23
[8] = tested on: HCT-15
[9] = tested on: T47D
[10] = tested on: UO-31
[11] = tested on: SF-268
[12] = tested on: A549
[13] = tested on: MDA-N
[14] = tested on: HOP-62
[15] = tested on: Malme-3M
[16] = tested on: CCRF-CEM
[17] = tested on: SF-539
[18] = tested on: COLO 205
[19] = tested on: HL-60
[20] = tested on: NCI-H226

Structure (SMILES) | GI50 [1] | GI50 [2] | GI50 [3] | GI50 [4] | GI50 [5] | GI50 [6] | GI50 [7] | GI50 [8] [µM] | GI50 [9] | GI50 [10] | GI50 [11] | GI50 [12] | GI50 [13] | GI50 [14] | GI50 [15] | GI50 [16] | GI50 [17] | GI50 [18] | GI50 [19] | GI50 [20]
COc1ccc(OC)c(C23CCCC(C2)N(C)CC3)c1 (configuration not stated) | 28.2 µM (inactive) | 19.6 µM (inactive) | 20.9 µM (inactive) | 21.8 µM (inactive) | 38.1 µM (inactive) | 40.3 µM (inactive) | 32.1 µM (inactive) | 34 | 33.3 µM (inactive) | 28.6 µM (inactive) | 44.6 µM (inactive) | 22.3 µM (inactive) | 27.4 µM (inactive) | – | – | – | – | – | – | –
O=C(/C=C/c1ccc(O)c(O)c1)NCCc1ccc(-c2ccccc2)cc1 | – | 20.4 µM (inactive) | – | > 100 µM (inactive) | > 100 µM (inactive) | 19.1 µM (inactive) | 68.4 µM (inactive) | > 100 | > 100 µM (inactive) | 94.8 µM (inactive) | 31.8 µM (inactive) | > 100 µM (inactive) | – | 31.3 µM (inactive) | 17.9 µM (inactive) | 26.5 µM (inactive) | > 100 µM (inactive) | 78.3 µM (inactive) | 28.3 µM (inactive) | –
Cc1cc(C)n(C(=CC(=O)C(Cl)Cl)n2nc(C)cc2C)n1 | – | 3.66 µM (inactive) | 1.66 µM (inactive) | 3.69 µM (inactive) | 5.21 µM (inactive) | 3.18 µM (inactive) | 2.62 µM (inactive) | 2.73 | 4.06 µM (inactive) | 4.71 µM (inactive) | 6.38 µM (inactive) | 21.7 µM (inactive) | – | 3.66 µM (inactive) | 4.35 µM (inactive) | 1.85 µM (inactive) | 3.43 µM (inactive) | 13.8 µM (inactive) | 3.32 µM (inactive) | 0.735 µM (active)
CC1(C)C=[N+]([O-])C(C)(C)N1O | > 10 µM (inactive) | > 10 µM (inactive) | – | > 10 µM (inactive) | – | > 10 µM (inactive) | > 10 µM (inactive) | > 10 | > 10 µM (inactive) | > 10 µM (inactive) | > 10 µM (inactive) | > 10 µM (inactive) | > 10 µM (inactive) | > 10 µM (inactive) | > 10 µM (inactive) | > 10 µM (inactive) | – | > 10 µM (inactive) | > 10 µM (inactive) | > 10 µM (inactive)
Nc1nc(Cl)cc(/N=N\c2ccccc2)n1 | 43 µM (inactive) | 11.7 µM (inactive) | 28.2 µM (inactive) | 20.8 µM (inactive) | 35.9 µM (inactive) | 61.2 µM (inactive) | 21 µM (inactive) | 12.5 | 32.6 µM (inactive) | 42.1 µM (inactive) | 29.5 µM (inactive) | 48.2 µM (inactive) | – | 24.1 µM (inactive) | 83.8 µM (inactive) | 13 µM (inactive) | 78.9 µM (inactive) | 27.5 µM (inactive) | 6.38 µM (inactive) | 45.2 µM (inactive)
COc1ccc2c(c1OC)OC[C@@H](C1=CC(=O)C=C(O)C1=O)C2 | 16.2 µM (inactive) | 7.62 µM (inactive) | 12.1 µM (inactive) | 15.3 µM (inactive) | 20.6 µM (inactive) | 14.2 µM (inactive) | 16.5 µM (inactive) | 14.7 | 4.25 µM (inactive) | 12.6 µM (inactive) | 18.1 µM (inactive) | 18.2 µM (inactive) | – | 27 µM (inactive) | 12 µM (inactive) | 1.36 µM (inactive) | 13.5 µM (inactive) | 21.3 µM (inactive) | 0.641 µM (active) | 19.6 µM (inactive)
COc1ccc(C2c3c(n(C)c(=O)n(C)c3=O)OC(N(C)C)(N(C)C)C2(F)F)cc1 (configuration not stated) | – | > 100 µM (inactive) | > 100 µM (inactive) | > 100 µM (inactive) | – | > 100 µM (inactive) | > 100 µM (inactive) | > 100 | > 100 µM (inactive) | > 100 µM (inactive) | > 100 µM (inactive) | > 100 µM (inactive) | – | > 100 µM (inactive) | – | > 100 µM (inactive) | > 100 µM (inactive) | > 100 µM (inactive) | – | > 100 µM (inactive)
COC(=O)c1ccc(/C=C2\Cc3ccccc3C2=O)cc1 | > 100 µM (inactive) | > 100 µM (inactive) | > 100 µM (inactive) | – | > 100 µM (inactive) | > 100 µM (inactive) | > 100 µM (inactive) | > 100 | > 100 µM (inactive) | > 100 µM (inactive) | > 100 µM (inactive) | > 100 µM (inactive) | > 100 µM (inactive) | > 100 µM (inactive) | – | > 100 µM (inactive) | > 100 µM (inactive) | > 100 µM (inactive) | > 100 µM (inactive) | –
COc1ccc(-c2cc(-c3ccc(Nc4ccnc5cc(Cl)ccc45)cc3)nc(N)c2C#N)cc1 | – | > 100 µM (inactive) | > 100 µM (inactive) | > 100 µM (inactive) | – | > 100 µM (inactive) | > 100 µM (inactive) | > 100 | > 100 µM (inactive) | 27.4 µM (inactive) | > 100 µM (inactive) | > 100 µM (inactive) | – | > 100 µM (inactive) | > 100 µM (inactive) | – | > 100 µM (inactive) | > 100 µM (inactive) | > 100 µM (inactive) | > 100 µM (inactive)
N#CC1(C#N)NC(c2cccs2)C(C#N)(C#N)NC1c1cccs1 (configuration not stated) | 43.2 µM (inactive) | 25.2 µM (inactive) | 20.6 µM (inactive) | 14.2 µM (inactive) | 43.2 µM (inactive) | > 100 µM (inactive) | 55.1 µM (inactive) | 30.7 | 51.2 µM (inactive) | 42.6 µM (inactive) | 35.5 µM (inactive) | 50.8 µM (inactive) | – | > 100 µM (inactive) | 41.9 µM (inactive) | 22.2 µM (inactive) | 19.9 µM (inactive) | 47.9 µM (inactive) | 17.1 µM (inactive) | 53.1 µM (inactive)
NS(=O)(=O)c1ccc(CNC(=S)NC(=O)Nc2ccc(Cl)c(Cl)c2)cc1 | 17.3 µM (inactive) | – | 15.1 µM (inactive) | 14.6 µM (inactive) | 17.1 µM (inactive) | 39.5 µM (inactive) | 14.8 µM (inactive) | 16.2 | 18.1 µM (inactive) | 16.9 µM (inactive) | 21.7 µM (inactive) | 23.6 µM (inactive) | 20 µM (inactive) | 18.6 µM (inactive) | 26.2 µM (inactive) | 16.4 µM (inactive) | 21.2 µM (inactive) | 33 µM (inactive) | – | –
C=C1C(=O)O[C@H]2[C@H]3O[C@@H](C[C@@H]12)[C@@]1(C)CC[C@H](O1)[C@H](C)CCC[C@H]3C | 2.22 µM (inactive) | 1.1 µM (active) | 1.81 µM (inactive) | 2.09 µM (inactive) | 2.64 µM (inactive) | 1.62 µM (inactive) | 1.75 µM (inactive) | 1.81 | 2.21 µM (inactive) | 1.56 µM (inactive) | 1.67 µM (inactive) | 2.16 µM (inactive) | – | 4.74 µM (inactive) | 1.72 µM (inactive) | 0.399 µM (active) | – | 1.75 µM (inactive) | 0.237 µM (active) | 1.53 µM (inactive)
O/N=C1/CC2(N3CCOCC3)C3CC/C(=N\O)C2CC1(Cc1ccccc1)C3 (configuration not stated) | > 100 µM (inactive) | > 100 µM (inactive) | > 100 µM (inactive) | > 100 µM (inactive) | – | – | > 100 µM (inactive) | > 100 | 67 µM (inactive) | > 100 µM (inactive) | > 100 µM (inactive) | > 100 µM (inactive) | > 100 µM (inactive) | > 100 µM (inactive) | > 100 µM (inactive) | > 100 µM (inactive) | > 100 µM (inactive) | 82 µM (inactive) | 67 µM (inactive) | > 100 µM (inactive)
CN1CC[C@@]2(c3cccc(O)c3)CC(=O)/C(=C/c3ccccc3)[C@H]1C2.[O-][Cl+3]([O-])([O-])O | 7.03 µM (inactive) | – | – | 19.8 µM (inactive) | 3.35 µM (inactive) | 15.7 µM (inactive) | 16 µM (inactive) | 5.89 | – | 12.9 µM (inactive) | 4.28 µM (inactive) | 15 µM (inactive) | 4.88 µM (inactive) | 18.5 µM (inactive) | 15 µM (inactive) | 3.12 µM (inactive) | 16.9 µM (inactive) | 8.05 µM (inactive) | 2.25 µM (inactive) | 17.8 µM (inactive)
COc1ccc(CCCNC(=O)c2cc(OC)c(OC)cc2CCO)cc1OC | > 100 µM (inactive) | > 100 µM (inactive) | > 100 µM (inactive) | > 100 µM (inactive) | > 100 µM (inactive) | > 100 µM (inactive) | > 100 µM (inactive) | > 100 | > 100 µM (inactive) | > 100 µM (inactive) | > 100 µM (inactive) | > 100 µM (inactive) | – | > 100 µM (inactive) | – | > 10 µM (inactive) | > 100 µM (inactive) | > 100 µM (inactive) | > 100 µM (inactive) | > 100 µM (inactive)
O=C1CC(c2ccc(Cl)cc2)Oc2ccccc21 (configuration not stated) | – | – | 20.6 µM (inactive) | 18.8 µM (inactive) | 15 µM (inactive) | 27.4 µM (inactive) | 15.2 µM (inactive) | 17 | 32 µM (inactive) | 18.1 µM (inactive) | 28.4 µM (inactive) | – | – | 19.6 µM (inactive) | – | 11 µM (inactive) | 13.4 µM (inactive) | 27 µM (inactive) | 10.7 µM (inactive) | 4.75 µM (inactive)
